According to PMC3157558, “Huprines as a new family of dual acting trypanocidal–antiplasmodial agents” (Bioorganic & Medicinal Chemistry, 2011):
Counter-ions that a name gives are not always drawn. Like-named read-outs stand apart in the source and are kept apart here.

Experiments:
[1] = system: bloodstream form T. brucei; assay: microbe, parasite or virus in culture; format: cell-based, Trypanosoma brucei; conditions: for SI (selectivity index, ratio of cytotoxic to trypanocidal IC50 values): IC50 against L6 cells/IC50 against T. brucei
Experimental: (§1) Trypanocidal activity was assessed by growing parasites for 48 h in the presence of various drug concentrations and determining the levels which inhibited growth by 50% (IC50) and 90% (IC90). In the case of untreated cultures, cell densities increased from 0.25 × 10^5 to 1 × 10^6 over this period. Cell densities at each drug concentration were determined using a hemocytometer and drug sensitivity was expressed as a percentage of growth of control cells.

[2] = system: rat skeletal myoblast L6 cells; assay: Cytotoxic activity against rat skeletal myoblast L6 cells (Alamar Blue); format: cell-based; conditions: 6 days incubation, mean of triplicate ± SEM
Experimental: Cytotoxicity against mammalian cells was assessed using microtitre plates following a described procedure.[41] Briefly, L6 cells (a rat skeletal muscle line) were seeded at 1 × 10^4 ml^−1 in 200 μL of growth medium containing different compound concentrations. The plates were incubated for 6 days at 37 °C and 20 μL Alamar Blue (Biosource UK Ltd) was then added to each well. After a further 8 h incubation, the fluorescence was determined using a Gemini fluorescent plate reader (Molecular Devices).

acetylcholinesterase = system: acetylcholinesterase; parameters: method as in PMID 10464010, PMID 11101357; conditions: cited from earlier work
in vitro = format: cell-based, Trypanosoma brucei; conditions: 427, rat
Experimental: as §1

[3] = system: memory and learning activities; conditions: cited from earlier work
[4] = system: Alzheimer's disease related brain neuropathology; parameters: method as in PMID 20689242; conditions: transgenic mouse model; cited from earlier work
[5] = bloodstream form T. brucei, pH 7.4, 48 h growth, concentration inhibiting growth by 90%, mean of triplicate ± SEM, read-out: T. brucei IC90
[6] = bloodstream form T. brucei, pH 7.4, 48 h growth, mean of triplicate experiments ± SEM, read-out: T. brucei IC50
[7] = Trypanosoma brucei, bloodstream form T. brucei, pH 7.4, 48 h growth, concentration inhibiting growth by 90%, mean of triplicate ± SEM, read-out: T. brucei IC90
[8] = Trypanosoma brucei, bloodstream form T. brucei, pH 7.4, 48 h growth, mean of triplicate experiments ± SEM, read-out: T. brucei IC50
[9] = Trypanosoma brucei, 48 h, pH 7.4, read-out: T. brucei IC50
[10] = Trypanosoma brucei, 48 h, pH 7.4, read-out: T. brucei IC90

CC(C)C1=CC2Cc3nc4cc(Cl)ccc4c(N)c3C(C1)C2 (stereo not drawn) [huprine 8, 12-Amino-3-chloro-6,7,10,11-tetrahydro-9-isopropyl-7,11-methanocycloocta[b]quinoline hydrochloride]
IC90 [1, 5]: 4.34 ± 0.03 µM
IC50 [1, 6]: 2.45 ± 0.37 µM

CCC1=CC2Cc3nc4ccccc4c(N)c3C(C1)C2 (stereo not drawn) [huprine 12]
SI (selectivity index, ratio of cytotoxic to trypanocidal IC50 values) [1]: 12.1
IC90 [1, 5]: 4.53 ± 0.16 µM
IC50 [1, 6]: 1.29 ± 0.16 µM
IC50 [2]: 15.6 ± 1.6 µM

CC(C)(C)C1=CC2Cc3nc4ccccc4c(N)c3C(C1)C2 (stereo not drawn) [huprine 14]
SI (selectivity index, ratio of cytotoxic to trypanocidal IC50 values) [1]: 13.2
IC90 [1, 5]: 3.05 ± 0.03 µM
IC50 [1, 6]: 0.88 ± 0.26 µM
IC50 [2]: 11.6 ± 0.5 µM
acetylcholinesterase inhibitory potency (rank in words) (acetylcholinesterase): least potent acetylcholinesterase inhibitors

CC(C)C1=CC2Cc3nc4cccc(F)c4c(N)c3C(C1)C2 (stereo not drawn) [huprine 10, 12-Amino-1-fluoro-6,7,10,11-tetrahydro-9-isopropyl-7,11-methanocycloocta[b]quinoline hydrochloride]
IC90 [1, 5]: 7.75 ± 0.23 µM
IC50 [1, 6]: 2.6 ± 0.55 µM

C=CCC1=CC2Cc3nc4ccccc4c(N)c3C(C1)C2 (stereo not drawn) [huprine 6]
IC90 [1, 7]: 8.52 ± 0.19 µM
IC50 [1, 8]: 4.08 ± 0.45 µM

CC1=CC2Cc3nc4cc(Cl)ccc4c(N)c3C(C1)C2 (stereo not drawn) [huprine 3]
selectivity ratio (in vitro): 12.8
IC90 [1, 7]: 2.94 ± 0.2 µM
IC50 [1, 8]: 0.61 ± 0.03 µM
IC50 ([2]; 144 h): 7.8 ± 0.47 µM
acetylcholinesterase inhibitory potency (rank in words) (acetylcholinesterase): most potent acetylcholinesterase inhibitors

CCC1=CC2Cc3nc4cccc(C)c4c(N)c3C(C1)C2 (stereo not drawn) [huprine 20]
IC90 [1, 5]: 8.86 ± 0.15 µM
IC50 [1, 6]: 5.28 ± 1.11 µM

C=CCC1=CC2Cc3nc4cccc(F)c4c(N)c3C(C1)C2 (stereo not drawn) [huprine 11, 9-Allyl-12-amino-1-fluoro-6,7,10,11-tetrahydro-7,11-methanocycloocta[b]quinoline hydrochloride]
IC50 [1, 9]: 3.62 ± 0.54 µM
IC90 [1, 10]: 8.73 ± 0.69 µM

CCC1=CC2Cc3nc4cc(Cl)ccc4c(N)c3[C@@H](C1)C2 [huprine 4]
IC90 [1, 7]: 1.76 ± 0.2 µM
IC50 [1, 8]: 0.84 ± 0.06 µM
IC50 ([2]; 144 h): 12.5 ± 0.4 µM
adverse effects in behavioural studies ([3]; behavioural studies in mice): did not induce adverse effects
effect on memory and learning activities ([3]; middle aged mice): ameliorate memory and learning activities
effect on Alzheimer's disease related brain neuropathology [4]: ameliorate
acetylcholinesterase inhibitory potency (rank in words) (acetylcholinesterase): most potent acetylcholinesterase inhibitors

CCC1=CC2Cc3nc4cccc(Cl)c4c(N)c3C(C1)C2 (stereo not drawn) [huprine 18]
SI (selectivity index, ratio of cytotoxic to trypanocidal IC50 values) [1]: 15.7
IC90 [1, 5]: 3.11 ± 0.29 µM
IC50 [1, 6]: 1.36 ± 0.19 µM
IC50 [2]: 21.3 ± 1.3 µM

C=CCC1=CC2Cc3nc4cc(Cl)ccc4c(N)c3C(C1)C2 (stereo not drawn) [huprine 9, 9-Allyl-12-amino-3-chloro-6,7,10,11-tetrahydro-7,11-methanocycloocta[b]quinoline hydrochloride]
selectivity ratio (in vitro; IC50 against L6 cells/IC50 against T. brucei, read-out: SI (selectivity index, ratio of cytotoxic to trypanocidal IC50 values)): 16.3
IC90 [1, 7]: 2.87 ± 0.18 µM
IC50 [1, 8]: 0.76 ± 0.07 µM
IC50 ([2]; 144 h): 12.4 ± 0.4 µM

CC1=CC2Cc3nc4cc(C)ccc4c(N)c3C(C1)C2 (stereo not drawn) [huprine 17]
SI (selectivity index, ratio of cytotoxic to trypanocidal IC50 values) [1]: 19.2
IC90 [1, 5]: 3.31 ± 0.59 µM
IC50 [1, 6]: 1.04 ± 0.05 µM
IC50 [2]: 20 ± 0.5 µM

CC(C)C1=CC2Cc3nc4ccccc4c(N)c3C(C1)C2 (stereo not drawn) [huprine 5]
IC50 [1, 9]: 2.06 ± 0.44 µM
IC90 [1, 10]: 4.76 ± 0.82 µM
